In patent US7517960B2, “Rat KCNQ5 voltage-gated potassium channel” (Wyeth, priority 2006, dated 2009):

Tests used:
[1] = system: rat KCNQ5; assay: Two-electrode voltage clamp recording of rat KCNQ5 expressed in Xenopus laevis oocytes; format: cell-based; conditions: homomeric rKCNQ5, cRNA-injected Xenopus laevis oocytes, recorded 48-72 hours after injection, FIG. 1B
Protocol: The electrodes were filled with 3 M KCl solution with resistances ranging from 0.5 to 1.5 MΩ.
For Examples 4 and 5, the cRNAs of rKONQ5 were injected directly into Xenopus laevis oocytes and the electrophysiological recordings were performed 48-72 hours after RNA injection using two-electrode voltage clamp recording (see Jow F and Wang K-W, Mol. Brain Res. 80:269-78 (2000) for methods). The electrodes were filled with 3 M KCI solution with resistances ranging from 0.5 to 1.5 MΩ. The bath solution pf pH 7.4 was a “ND96” containing the following (in mM): NaCI, 96; KCl, 2; CaCl21.8; MgCl2 1; HEPES, 10 (see FIG. 1A).

[2] = system: rat KCNQ5/KCNQ3 heteromeric channels; assay: Two-electrode voltage clamp recording of rKCNQ5 co-expressed with KCNQ3 in Xenopus laevis oocytes; format: cell-based; conditions: FIG. 2D
Excerpt: There is a significant increase in the current amplitude of the rat KCNQ5/KCNQ3 heteromeric channels compared with that of the rKCNQ5 or rat KCNQ3 homomeric channels. The homomeric channels here refer to those with only one type of channel subunits expressed in Xenopus laevis oocytes. In this case, it refers to either rKCNQ5 alone (FIG. 2A) or rat KCNQ3 alone (FIG. 2B). Heteromeric channels means that the functional channels are composed of subunits of both rKCNQ5 and rat KCNQ3 (FIG. 2C). It is believed that those functional channels are composed of 4 such subunits. Therefore, the functional channels are “tetramers”. If the 4 subunits are the same type (e.g. 4 rKCNQ5 subunits, or 4 rat KCNQ3 subunits), there are known as “homotetramers”. If the 4 subunits in these functional channels are different (e.g., 2 rKCNQ5+2 rat KCNQ3, or 3 rat KCNQ5+1 rat KCNQ3, etc.), they are known as “heterotetramers”.
For Examples 4 and 5, the cRNAs of rKONQ5 were injected directly into Xenopus laevis oocytes and the electrophysiological recordings were performed 48-72 hours after RNA injection using two-electrode voltage clamp recording (see Jow F and Wang K-W, Mol. Brain Res. 80:269-78 (2000) for methods). The electrodes were filled with 3 M KCI solution with resistances ranging from 0.5 to 1.5 MΩ. […]

O=C1c2ccccc2C(Cc2ccncc2)(Cc2ccncc2)c2ccccc21 [XE991]
KCNQ5 channel current amplitude [1]: decreased the current amplitude | current amplitudes of heterotetramer channels [2]: decrease
